{"source": "paper PMC2213500", "about": "(The Journal of Experimental Medicine, 2000)", "key": {"[1]": {"target": "wtDR1 (Homo sapiens, UniProt P01903+P01911, A100R/D57E/F55L/F60I/F76Y/I96L/L162R/M171V/P40L/Q125E/R42F/V115G/Y59C)", "assay_type": "binding"}, "[2]": {"target": "soluble wild-type HLA-DR1 (empty, no added peptide) (human)", "assay": "intrinsic tryptophan fluorescence"}}, "data": [{"substance": "CLSPFPFDL", "values": [{"measurement": "DR1 binding of control peptide", "setting": "[1]", "value": "non–DR1-binding"}]}, {"substance": "soluble HLA-DM (from UniProt P28067;P28068) (complex)", "values": [{"measurement": "increase of tryptophan fluorescence on mixing", "setting": "[2]", "value": "10 to 12", "unit": "%"}]}]}
